From patent US11136301B2, “Broad spectrum antiviral compounds and uses thereof” (The Regents Of The University Of California, priority 2015, dated 2021)
“Also recorded” adds a separate entry of the source. Where a name gives a salt, the structure may show the parent alone. Read-outs that look alike come from different tables or passages of the source.

Tests used:
[1] = system: wild-type HIV-1 (HIV-1LAI) in H9 cells (non-permissive); test: microbe, parasite or virus in culture; format: cell-based; details: for viral replication (reverse transcriptase activity in supernatants): HIV-1LAI, up to 50 μM, 15 days
[2] = system: wild-type HIV-1 (HIV-1LAI) in MT-4 cells (permissive); test: Antiviral activity assay: wild-type HIV-1 in permissive MT4 cells, reverse transcriptase activity in culture supernatants; format: cell-based; details: for viral replication (reverse transcriptase activity in supernatants): MT4 cells, HIV-1LAI, 15 days
[3] = system: HA-tagged A3G and GFP-tagged Vif or ΔVif in 293FT cells; test: Immunoblot of A3G and Vif levels in transfected 293FT cells; details: 293FT cells, 50 μM, 16 h; for A3G levels / Vif expression: HA-A3G and GFP-Vif
HSP90 = test: ViTAP (Vif inhibitor Target Affinity Purification): streptavidin affinity purification of compound-bound proteins; format: binding; details: transfected 293FT cells, streptavidin affinity purification
[4] = system: polyubiquitination of A3G and Vif; test: Ubiquitination assay in 293FT cells; format: cell-based; details: 293FT cells expressing HA-A3G and GFP-Vif, 10 μM, ALLN
Description: Cells were incubated with or without 10 μM of IMA82, IMD55, or IMD64 for 16 h, and then with or without 10 μM of the calpain inhibitor ALLN for 4 h. The cells were washed once with PBS and lysed. Samples of 200 μg protein were immunoprecipitated by the addition of rat anti-HA (Roche) or mouse anti-GFP (Wako) antibodies (7 μg) and 50 μl protein G DYNABEADS® (Invitrogen) and rotated at RT for 2 h. The beads were washed three times with PBS containing 0.05% Tween 20 and boiled in 5×SDS sample buffer. The denatured proteins were resolved and electroblotted onto PVDF membranes. The membranes were probed with rabbit anti-ubiquitin, rabbit anti-HA, or rabbit anti-GFP antibodies, as described above.

[5] = Human immunodeficiency virus 1, H9, read-out: Antiviral activity (IC50 μM) H9, Table 2, wild-type HIV-1, non-permissive H9 cells
[6] = Human immunodeficiency virus 1, H9, read-out: Antiviral activity (IC50 μM) H9 Cells, Table 4, wild-type HIV-1, non-permissive H9 cells
[7] = Human immunodeficiency virus 1, H9, read-out: Antiviral activity (IC50 μM) H9 Cells, Table 7, wild-type HIV-1, non-permissive H9 cells
[8] = Human immunodeficiency virus 1, H9, read-out: Antiviral activity (IC50 μM) H9 cells, Table 5, wild-type HIV-1, non-permissive H9 cells
[9] = Human immunodeficiency virus 1, H9, read-out: Antiviral activity (IC50 μM) H9 cells, Table 8, wild-type HIV-1, non-permissive H9 cells
[10] = Human immunodeficiency virus 1, H9, read-out: Antiviral activity (IC50 μM) H9 cells, wild-type HIV-1 (HIV-1LAI), H9 cells (non-permissive), RT activity in culture supernatants, compounds 1 to 50 μM
[11] = Human immunodeficiency virus 1, MT4, Table 2, wild-type HIV-1, permissive MT4 cells, read-out: Antiviral activity (IC50 μM) MT4
[12] = Human immunodeficiency virus 1, MT4, wild-type HIV-1 (HIV-1LAI), MT4 cells (permissive), RT activity in culture supernatants, compounds 1 to 50 μM, read-out: Antiviral activity (IC50 μM) MT4 cells
[13] = Human immunodeficiency virus 1, H9, read-out: IC50, anti-HIV-1 activity, non-permissive H9 cells
[14] = Human immunodeficiency virus 1, H9, read-out: Antiviral activity (IC50 μM) H9 cells, Table 1, wild-type HIV-1, non-permissive H9 cells
[15] = Human immunodeficiency virus 1, H9, read-out: Antiviral activity (IC50 μM) H9 cells, Table 3, wild-type HIV-1, non-permissive H9 cells
[16] = Human immunodeficiency virus 1, H9, read-out: Antiviral activity (IC50 μM) H9 cells, Table 6, wild-type HIV-1, non-permissive H9 cells
[17] = Human immunodeficiency virus 1, MT4, Table 1, wild-type HIV-1, permissive MT4 cells, read-out: Antiviral activity (IC50 μM) MT4 cells
[18] = Human immunodeficiency virus 1, MT4, Table 3, wild-type HIV-1, permissive MT4 cells, read-out: Antiviral activity (IC50 μM) MT4 cells
[19] = Human immunodeficiency virus 1, MT4, Table 6, wild-type HIV-1, permissive MT4 cells, read-out: Antiviral activity (IC50 μM) MT4 cells
[20] = Human immunodeficiency virus 1, MT4, text, permissive MT4 cells, read-out: IC50, non-specific antiviral activity in permissive cells

Row | SMILES | IC50 [1, 5] | IC50 [1, 6] | IC50 [1, 7] | IC50 [1, 8] | IC50 [1, 9] | IC50 [1, 10] | IC50 [2, 11] | IC50 [2, 12] | upregulation of A3G and downregulation of Vif (immunoblots, FIG. 16) [3] | viral replication (reverse transcriptase activity in supernatants) ([1]; H9 cells) | co-purification of HSP90 (90 kDa protein) with the compound (HSP90) | melting point | IC50 [1, 13] | IC50 [1, 14] | IC50 [1, 15] | IC50 [2, 17] | IC50 [2, 18] | A3G levels [3] | Vif expression [3] | other results
1 | COc1ccc(OC)c(-n2cc(-c3ccccc3S(=O)(=O)c3ccc(N)cc3)nn2)c1 [Compound 5ey, 4-((2-(1-(2,5-Dimethoxyphenyl)-1H-1,2,3-triazol-4-yl)phenyl)sulfonyl)aniline] | 0.6 µM | 0.6 µM | 0.6 µM | 0.6 µM | 0.6 µM | 0.6 µM | > 50 µM | > 50 µM | same mechanism as of RN-18; also recorded: same mechanism as observed for RN-18 and 1d |  |  |  |  |  |  |  |  |  |  | 
2 | [N-]=[N+]=Nc1ccc(C(=O)NCCOCCOCCOCCNC(=O)CCCCC2SCC3NC(=O)NC32)cc1 (centres unmarked) [IMD64, 4-Azido-N-(13-oxo-17-(2-oxohexahydro-1H-thieno[3,4-d]imidazol-4-yl)-3,6,9-trioxa-12-azaheptadecyl)benzamide] |  |  |  |  |  |  |  |  |  | no effect on viral replication | did not associate |  |  |  |  |  |  |  |  | viral replication (reverse transcriptase activity in supernatants) ([2]; up to 50 μM): no effect on viral replication; A3G ubiquitination [4]: extensively ubiquitinated
3 | COc1cc(C(=O)NCCOCCOCCOCCNC(=O)CCCCC2SCC3NC(=O)NC32)ccc1NC(=O)c1ccc(N=[N+]=[N-])cc1Sc1ccc([N+](=O)[O-])cc1 (centres unmarked) [IMD55, 4-azido-N-(2-methoxy-4-((13-oxo-17-(2-oxohexahydro-1H-thieno[3,4-d]imidazol-4-yl)-3,6,9-trioxa-12-azaheptadecyl)carbamoyl)phenyl)-2-((4-nitrophenyl)thio)benzamide] |  |  |  |  |  |  |  |  |  | dose-dependently inhibited viral replication | co-purified; also recorded: specifically co-purify |  |  |  |  |  |  |  |  | A3G ubiquitination [4]: not observed; Vif ubiquitination [4]: ubiquitinated
4 | COc1ccccc1-n1cc(-c2ccccc2S(=O)(=O)c2ccc(C(=O)O)cc2)nn1 (as salt: salt) [Compound 2gy, 2-Hydroxy-N,N,N-trimethylethanaminium 4-((2-(1-(2-methoxyphenyl)-1H-1,2,3-triazol-4-yl)phenyl)sulfonyl)benzoate] |  |  |  |  |  |  |  |  |  |  |  | 93 °C |  |  |  |  |  |  |  | 
5 | COc1cc(C(=O)NCCOCCOCCOCCNC(=O)CCCCC2SCC3NC(=O)NC32)ccc1NC(=O)c1ccccc1Sc1ccc([N+](=O)[O-])cc1 (centres unmarked) [IMD40, 3-methoxy-4-(2-((4-nitrophenyl)thio)benzamido)-N-(13-oxo-17-(2-oxohexahydro-1H-thieno[3,4-d]imidazol-4-yl)-3,6,9-trioxa-12-azaheptadecyl)benzamide] |  |  |  |  |  |  |  |  |  | dose-dependently inhibited viral replication | binds HSP90; also recorded: purified a specific 90 kDa protein |  |  |  |  |  |  |  |  | 
6 | COc1ccc(OC)c(-n2cc(-c3ccccc3Sc3ccc([N+](=O)[O-])cc3)nn2)c1 [Compound 5ax, 1-(2,5-Dimethoxyphenyl)-4-(2-((4-nitrophenyl)thio)phenyl)-1H-1,2,3-triazole] | 0.01 µM | 0.01 µM | 0.01 µM | 0.01 µM | 0.01 µM | 0.01 µM | > 50 µM | > 50 µM | same mechanism as of RN-18; also recorded: same mechanism as observed for RN-18 and 1d |  |  |  | 0.01 µM |  |  |  |  |  |  | fold more potent than the original lead molecule RN-18 ([1]; H9 cells, IC50 compared with RN-18): about 1000 fold
7 | COc1ccccc1-c1nnc(-c2ccccc2Sc2ccc([N+](=O)[O-])cc2)o1 [Compound 1b, 2-(2-Methoxyphenyl)-5-(2-((4-nitrophenyl)thio)phenyl)-1,3,4-oxadiazole] |  |  |  |  |  |  |  |  |  |  |  | 128 to 130 °C | 6.8 µM | 6.8 µM | 6.8 µM | 50 µM | 50 µM | up-regulation of A3G; also recorded: restoring A3G levels | downregulation of Vif; also recorded: down-regulated Vif expression | IC50 [1, 16]: 6.8 µM; IC50 [2, 19]: 50 µM; IC50 [2, 20]: 50 µM
8 | COc1ccccc1-n1cc(-c2ccccc2Sc2ccc(C(F)(F)F)cc2)nn1 [Compound 2dx, 1-(2-Methoxyphenyl)-4-(2-((4-(trifluoromethyl)phenyl)thio)phenyl)-1H-1,2,3-triazole] | 2.6 µM | 2.6 µM | 2.6 µM | 2.6 µM | 2.6 µM | 2.6 µM | > 50 µM | > 50 µM | same mechanism as of RN-18; also recorded: same mechanism as observed for RN-18 and 1d |  |  |  | 1 to 3 µM |  |  |  |  |  |  | 
9 | COc1ccccc1-n1nncc1-c1ccccc1Sc1ccc([N+](=O)[O-])cc1 [Compound 1e, 1-(2-Methoxyphenyl)-5-(2-((4-nitrophenyl)thio)phenyl)-1H-1,2,3-triazole] |  |  |  |  |  |  |  |  |  |  |  | 139 to 141 °C | 15 µM | 15 µM | 15 µM | 25 µM | 25 µM | up-regulation of A3G; also recorded: restoring A3G levels | downregulation of Vif; also recorded: down-regulated Vif expression | IC50 [2, 20]: 25 µM
10 | COc1ccccc1-n1cc(-c2ccccc2S(=O)(=O)c2ccc(N)cc2)nn1 [Compound 2ey, 4-((2-(1-(2-Methoxyphenyl)-1H-1,2,3-triazol-4-yl)phenyl)sulfonyl)aniline] | 0.4 µM | 0.4 µM | 0.4 µM | 0.4 µM | 0.4 µM | 0.4 µM | > 50 µM | > 50 µM | same mechanism as of RN-18; also recorded: same mechanism as observed for RN-18 and 1d |  |  |  | 0.4 µM |  |  |  |  |  |  | 
11 | COc1ccccc1-c1noc(-c2ccccc2Sc2ccc([N+](=O)[O-])cc2)n1 [Compound 1c, 3-(2-Methoxyphenyl)-5-(2-((4-nitrophenyl)thio)phenyl)-1,2,4-oxadiazole] |  |  |  |  |  |  |  |  |  |  |  | 138 °C | 6.8 µM | 6.8 µM | 6.8 µM | > 50 µM | > 50 µM | up-regulation of A3G; also recorded: restoring A3G levels | downregulation of Vif; also recorded: down-regulated Vif expression | 
12 | COc1ccccc1-n1cc(-c2ccccc2Sc2ccc([N+](=O)[O-])cc2)nn1 [Compound 1d, 1-(2-Methoxyphenyl)-4-(2-((4-nitrophenyl)thio)phenyl)-1H-1,2,3-triazole] |  |  |  |  |  | 1.2 µM |  | > 50 µM |  |  |  | 149 to 151 °C | 1.2 µM | 1.2 µM | 1.2 µM | > 50 µM | > 50 µM | up-regulation of A3G; also recorded: restoring A3G levels | downregulation of Vif; also recorded: down-regulated Vif expression | IC50 [1, 16]: 1.2 µM; IC50 [2, 19]: > 50 µM; antiviral activity in MT4 cells (specificity) ([2]; permissive MT4 cells, up to 50 μM): no activity
13 | COc1ccccc1C(=O)NCCOCCOCCOCCNC(=O)CCCCC1SCC2NC(=O)NC21 (centres unmarked) [IMD41, 2-methoxy-N-(13-oxo-17-(2-oxohexahydro-1H-thieno[3,4-d]imidazol-4-yl)-3,6,9-trioxa-12-azaheptadecyl)benzamide] |  |  |  |  |  |  |  |  |  | no effect on viral replication | did not co-purify |  |  |  |  |  |  |  |  | viral replication (reverse transcriptase activity in supernatants) ([2]; up to 50 μM): no effect on viral replication
